In ChEMBL document CHEMBL3097990, “Probing the Binding Site of Bile Acids in TGR5” (ACS Med Chem Lett, 2013):

How the values were obtained:
Homo sapiens [1] = species on record: Homo sapiens; assay: Selectivity ratio of EC50 for TGR5 S270A mutant (unknown origin) to EC50 for wild type TGR5 (unknown origin)
Homo sapiens [2] = species on record: Homo sapiens; assay: Selectivity ratio of EC50 for TGR5 Y89F mutant (unknown origin) to EC50 for wild type TGR5 (unknown origin)
Homo sapiens [3] = species on record: Homo sapiens; assay: Selectivity ratio of EC50 for TGR5 Y89A mutant (unknown origin) to EC50 for wild type TGR5 (unknown origin)
[4] = target: T1, G-protein coupled bile acid receptor 1 (Homo sapiens, UniProt Q8TDU6); assay: Agonist activity at wild type TGR5 (unknown origin)
T1 sequence (Q8TDU6 whole entry): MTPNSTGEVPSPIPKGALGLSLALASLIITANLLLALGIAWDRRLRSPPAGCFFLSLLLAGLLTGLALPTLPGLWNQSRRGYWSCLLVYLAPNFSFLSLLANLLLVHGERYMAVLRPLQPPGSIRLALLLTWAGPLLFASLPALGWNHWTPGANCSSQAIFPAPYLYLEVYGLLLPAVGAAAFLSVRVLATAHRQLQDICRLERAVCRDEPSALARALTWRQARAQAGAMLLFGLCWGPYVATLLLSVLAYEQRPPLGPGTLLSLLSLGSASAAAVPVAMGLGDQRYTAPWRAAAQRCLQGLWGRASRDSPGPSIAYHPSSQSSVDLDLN

Homo sapiens [5] = species on record: Homo sapiens; assay: Selectivity ratio of EC50 for TGR5 N93D mutant (unknown origin) to EC50 for wild type TGR5 (unknown origin)

Ratio EC50 (Homo sapiens [1]): > 1000
Ratio EC50 (Homo sapiens [2]): 1.7
Ratio EC50 (Homo sapiens [3]): > 1000
EC50 [4]: 1320 nM
Ratio EC50 (Homo sapiens [5]): > 1000
Compound: CC[C@H]1[C@@H](O)[C@@H]2[C@H](CC[C@]3(C)[C@@H]([C@H](C)CCN)CC[C@@H]23)[C@@]2(C)CC[C@@H](O)C[C@@H]12
